# Test results taken from patent US8362018B2, “Substituted imidazo[1,2-a]pyrazine compounds useful for the treatment of viral infections” (Biofocus DPI, Ltd., priority 2007, dated 2013).
# Tests used:
# [1] = cytotoxicity measurement (CC50), Table 13; type: cell-based; conditions: human, Huh7 cells
# HCV replicon = test: anti-viral assay (EC50), Table 13; type: cell-based; conditions: Hepatitis C virus, anti-viral assays
# Source text: The ability of a compound to inhibit HCV replication can be measured in vitro or using animal models using models and assays well known to those of skill in the art (e.g. Pietschmann et al, Clin Liver Dis. 7(1)c23-43, 2003). In vitro techniques for measuring the ability of a compound to inhibit HCV replication involve using HCV or an HCV replicon. Because HCV is difficult to grow in culture, particular in vitro techniques employ an HCV replicon.
# An HCV replicon is an RNA molecule able to autonomously replicate in a cultured cell, such as Huh7. The HCV replicon expresses the HCV derived components of the replication machinery and contains cis-elements required for replication in a cultured cell. […]
SMILES,CC50 [1] [µM],EC50 (HCV replicon) [µM]
COc1ccc(CNc2nccn3c(-c4cccc(NS(C)(=O)=O)c4)cnc23)cc1 [Compound 83],< 35,1 to 20
N#Cc1cc(-c2cnc3c(NCc4ccc(S(N)(=O)=O)cc4)nccn23)ccc1O [Compound 51],> 35,> 20
OCc1ccc(-c2cnc3c(NCCc4ccncc4)nccn23)cc1 [Compound 3],> 35,> 20
N#Cc1ccc(CNc2nccn3c(-c4ccc(O)cc4)cnc23)cc1 [Compound 42],< 35,1 to 20
Cc1cc(-c2cnc3c(NCc4ccc(S(N)(=O)=O)cc4)nccn23)cc(C)c1O [Compound 41],< 35,1 to 20
NS(=O)(=O)c1ccc(CNc2nccn3c(-c4ccc(O)c(O)c4)cnc23)cc1 [Compound 89],> 35,> 20
NS(=O)(=O)c1ccc(CNc2nccn3c(-c4cccc(F)c4)cnc23)cc1 [Compound 67],< 35,1 to 20
CS(=O)(=O)c1ccc(CNc2nccn3c(-c4ccc(O)cc4)cnc23)cc1 [Compound 32],> 35,1 to 20
NS(=O)(=O)c1ccc(CNc2nccn3c(-c4ccc(CO)s4)cnc23)cc1 [Compound 45],> 35,1 to 20
COc1ccc(-c2cnc3c(NCCS(N)(=O)=O)nccn23)cc1OC [Compound 43],> 35,> 20
COc1ccc(-c2cnc3c(NCc4cccs4)nccn23)cc1OC [Compound 66],< 35,1 to 20
COc1ccc(-c2cnc3c(NCc4ccc(S(N)(=O)=O)cc4)nccn23)cc1OC [Compound 9],> 35,< 1
CS(=O)(=O)Nc1cccc(-c2cnc3c(NCc4ccc(S(N)(=O)=O)cc4)nccn23)c1 [Compound 71],< 35,1 to 20
COc1ccc(-c2cnc3c(NCC4CCOCC4)nccn23)cc1OC [Compound 29],< 35,1 to 20
Oc1ccc(-c2cnc3c(Nc4ccccc4)nccn23)cc1 [Compound 96],> 35,> 20
COc1ccccc1-c1cnc2c(NCc3ccc(S(N)(=O)=O)cc3)nccn12 [Compound 86],< 35,1 to 20
Oc1ccc(-c2cnc3c(NCc4ccccc4)nccn23)cc1 [Compound 24],< 35,1 to 20
Oc1ccc(-c2cnc3c(NCc4ccc(C(F)(F)F)cc4)nccn23)cc1 [Compound 39],< 35,1 to 20
COc1ccc(-c2cnc3c(NCCCn4ccnc4)nccn23)cc1OC [Compound 30],> 35,> 20
COc1cc(-c2cnc3c(NCc4ccc(S(N)(=O)=O)cc4)nc(C)cn23)ccc1O [Compound 112],< 35,< 1
COc1ccc(-c2cnc3c(NCCc4ccc(S(N)(=O)=O)cc4)nccn23)cc1OC [Compound 17],< 35,1 to 20
COc1cccc(-c2cnc3c(NCc4ccc(S(N)(=O)=O)cc4)nccn23)c1 [Compound 12],> 35,1 to 20

SMILES,CC50 [1] [µM],EC50 (HCV replicon) [µM]
OCc1ccc(CNc2nccn3c(-c4ccc(O)cc4)cnc23)cc1 [Compound 47],< 35,1 to 20
NS(=O)(=O)c1ccc(CNc2nccn3c(-c4ccc(F)cc4)cnc23)cc1 [Compound 11],> 35,1 to 20
CS(=O)(=O)Nc1cccc(-c2cnc3c(NCc4cccnc4)nccn23)c1 [Compound 77],< 35,1 to 20
NC(=O)c1ccc(CNc2nccn3c(-c4ccc(O)cc4)cnc23)cc1 [Compound 48],> 35,1 to 20
CC(=O)Nc1cccc(-c2cnc3c(NCc4ccc(S(N)(=O)=O)cc4)nccn23)c1 [Compound 87],< 35,1 to 20
"Cc1nc2c(NCc3ccc(S(N)(=O)=O)cc3)nccn2c1-c1ccc(O)cc1 [Compound 104, 4-{[3-(4-Hydroxy-phenyl)-2-methyl-imidazo[1,2-a]pyrazin-8-ylamino]-methyl}-benzenesulfonamide]",> 35,1 to 20
COc1ccc(-c2cnc3c(NCc4ccc(Cl)cc4)nccn23)cc1OC [Compound 97],< 35,1 to 20
O=C(O)c1ccc(CNc2nccn3c(-c4ccc(O)cc4)cnc23)cc1 [Compound 52],> 35,> 20
COC(=O)c1ccc(CNc2nccn3c(-c4ccc(OC)c(OC)c4)cnc23)cc1 [Compound 13],< 35,1 to 20
Oc1ccc(-c2cnc3c(NCCc4ccncc4)nccn23)cc1 [Compound 2],< 35,1 to 20
Oc1ccc(-c2cnc3c(NCc4ccc(Cl)cc4)nccn23)cc1 [Compound 34],< 35,1 to 20
CC(=O)Nc1ccc(-c2cnc3c(NCc4ccc(S(N)(=O)=O)cc4)nccn23)cc1 [Compound 27],> 35,1 to 20
Oc1ccc(Nc2nccn3c(-c4cccc(F)c4)cnc23)cc1 [Compound 82],< 35,1 to 20
CNC(=O)c1ccc(CNc2nccn3c(-c4ccc(O)cc4)cnc23)cc1 [Compound 49],< 35,1 to 20
COc1ccc(-c2cnc3c(NCc4ccc(S(N)(=O)=O)cc4)nccn23)cc1 [Compound 16],> 35,1 to 20
CCNS(=O)(=O)c1ccc(CNc2nccn3c(-c4ccc(OC)cc4)cnc23)cc1 [Compound 101],> 35,1 to 20
COc1ccc(-c2cnc3c(NCc4cnccn4)nccn23)cc1OC [Compound 23],> 35,1 to 20
Oc1ccc(-c2cnc3c(NCc4ccccc4Cl)nccn23)cc1 [Compound 37],> 35,1 to 20
NS(=O)(=O)c1ccc(CNc2nccn3c(-c4ccccc4)cnc23)cc1 [Compound 74],< 35,1 to 20
CC(C)(C)c1ccc(CNc2nccn3c(-c4ccc(O)cc4)cnc23)cc1 [Compound 98],< 35,1 to 20
CS(=O)(=O)Nc1cccc(-c2cnc3c(NCc4ccc5c(c4)OCO5)nccn23)c1 [Compound 73],< 35,1 to 20
COc1ccc(-c2cnc3c(NCc4cccc(Cl)c4)nccn23)cc1 [Compound 44],< 35,1 to 20

SMILES,CC50 [1] [µM],EC50 (HCV replicon) [µM]
Oc1ccc(-c2cnc3c(NCc4cccc(Cl)c4)nccn23)cc1 [Compound 99],< 35,1 to 20
NS(=O)(=O)c1ccc(CNc2nccn3c(-c4cccc(O)c4)cnc23)cc1 [Compound 65],< 35,1 to 20
"NC(=O)c1cc(-c2cnc3c(NCc4ccc(S(N)(=O)=O)cc4)nccn23)ccc1O [Compound 94, 2-Hydroxy-5-[8-(4-sulfamoyl-benzylamino)-imidazo[1,2-a]pyrazin-3-yl]-benzamide]",> 35,1 to 20
NS(=O)(=O)c1ccc(CNc2nccn3c(-c4cccc(CO)c4)cnc23)cc1 [Compound 75],< 35,1 to 20
COc1cc(-c2cnc3c(NCc4ccc(S(N)(=O)=O)cc4)nccn23)ccc1O [Compound 20],< 35,< 1
COc1ccc(-c2cnc3c(NCCc4ccncc4)nccn23)cc1OC [Compound 62],< 35,1 to 20
Cc1ccc(CNc2nccn3c(-c4ccc(O)cc4)cnc23)cc1 [Compound 38],> 35,1 to 20
CC(=O)c1cccc(-c2cnc3c(NCc4ccc(S(N)(=O)=O)cc4)nccn23)c1 [Compound 18],> 35,1 to 20
Oc1cccc(-c2cnc3c(NCc4ccncc4)nccn23)c1 [Compound 6],> 35,1 to 20
NS(=O)(=O)c1ccc(CNc2nccn3c(-c4ccc(OC(F)(F)F)cc4)cnc23)cc1 [Compound 15],> 35,> 20
COc1ccc(-c2cnc3c(Nc4ccc(N5CCOCC5)cc4)nccn23)cc1OC [Compound 64],< 35,1 to 20
COc1cc(-c2c(C)nc3c(NCc4ccc(S(N)(=O)=O)cc4)nccn23)ccc1O [Compound 105],> 35,< 1
COc1ccc(-c2cnc3c(NCc4ccco4)nccn23)cc1OC [Compound 68],< 35,1 to 20
CS(=O)(=O)Nc1ccc(-c2cnc3c(NCc4ccc(S(N)(=O)=O)cc4)nccn23)cc1 [Compound 28],> 35,> 20
NS(=O)(=O)c1ccc(CNc2nccn3c(-c4ccc(O)c([N+](=O)[O-])c4)cnc23)cc1 [Compound 54],> 35,1 to 20
COc1ccc(-c2cnc3c(NCc4ccccc4)nccn23)cc1OC [Compound 14],> 35,1 to 20
CCNS(=O)(=O)c1ccc(CNc2nccn3c(-c4ccc(O)cc4)cnc23)cc1 [Compound 102],> 35,1 to 20
COc1ccc(-c2cnc3c(NCc4ccc(NS(C)(=O)=O)cc4)nccn23)cc1OC [Compound 22],> 35,1 to 20
Oc1cccc(-c2cnc3c(NCc4cccs4)nccn23)c1 [Compound 80],< 35,1 to 20
Nc1ccc(-c2cnc3c(NCc4ccc(S(N)(=O)=O)cc4)nccn23)cc1 [Compound 50],> 35,1 to 20
CNS(=O)(=O)c1ccc(CNc2nccn3c(-c4ccc(OC)cc4)cnc23)cc1 [Compound 100],> 35,1 to 20
"COc1ccc(-c2cnc3c(NCc4ccc(C(=O)O)cc4)nccn23)cc1OC [Compound 92, 4-{[3-(3,4-Dimethoxy-phenyl)-imidazo[1,2-a]pyrazin-8-ylamino]-methyl}-benzoic acid]",> 35,1 to 20
